From patent US12583835B2, “Crystal form of nitroxoline prodrug, pharmaceutical composition containing same, and preparation method therefor and application thereof” (Jiangsu Yahong Meditech Co., Ltd., priority 2020, dated 2026)

Experiments:
[1] = Stability test of crystal form A; type: physicochemical
Procedure: The crystal forms obtained in Examples 2-10 were packaged in double-layer PE bags+aluminum foil bags+cardboard barrels, sealed and stored at a temperature of 40° C. and a relative humidity of 75%; a temperature of 25° C. and a relative humidity of 60%; at 5±3° C. for 6 months. The inspection items (appearance, moisture, related substance 1, related substance 2, content) were tested, and the specific test methods were as follows.
• Moisture Meter • Electronic balance 1.2 Reagents • Karl Fischer titrant: analytical grad • Anhydrous methanol: analytical grade 1.3 Detection Method • About 50 mL of methanol was pumped into the titration beaker for pre-titration; • About 1.0 g of the test sample was accurately weighed and put into the titration beaker, stirred to dissolve, and the moisture of the test sample was titrated; • The weight of the test sample added, the concentration of the Karl Fischer titrant and the volume of the Karl Fischer titrant consumed during determination were recorded; the moisture of the second test sample was determined using the same method. 1.4 Calculation Formula
[formula] • V—Volume of Karl Fischer titrant consumed for the test sample, mL; • F—Equivalent mass of water per 1 mL of Karl Fischer titrant, mg/mL; • W—Weighed sample amount of the test sample, g. 2 Related Substance 1 2.1 Chromatographic Conditions: High Performance Liquid Chromatography (HPLC) • Column: Waters XBridge C18 4.6×150 mm, 5 μm • Detector: UV or equivalent detector • Wavelength: 210 nm • Column temperature: 35° C. • Flow rate: 1.0 mL/min • Injection volume: 10 μL • Needle Wash: Acetonitrile • Mobile phase gradient: […]
About 25 mg of the test sample was accurately weighed and put into a 50 mL volumetric flask. The diluent was added to dissolve the substance and dilute the solution to the mark, and the solution was shaken well.
[formula] • AU—the peak area of impurities in the test sample solution; • AT—Total peak area of the test sample solution. • 2) Total impurity (%)=Σ single impurity
• 3 Related Substance 2 (D-isobutyrylproline) • 3.1 Chromatographic Conditions: High Performance Liquid Chromatography (HPLC) • Column: Synergi Hydro RP 4.6×250 mm, 4 μm • Detector: UV or equivalent detector • Wave length: 210 nm • Column temperature: 35° C. • Flow rate: 1.0 mL/min • Injection volume: 5 μL • Needle Wash: Acetonitrile • Mobile phase gradient: […]
About 20 mg of the test sample was accurately weighed and put into a 10 mL volumetric flask. The diluent was added to dissolve the test sample and dilute the solution to the mark, and the solution was shaken well. Two solutions were prepared in parallel and labeled as S1/S2 respectively. • 3.4 Calculation: Only the Peak of Related Substance 2 was Integrated
[formula] [formula] • ARS2—Average peak area of reference solution 2; • ARS1—Average peak area of 5 injections of reference solution 1; • As—Peak area of related substance 2 in the test sample solution; • MRS1—Weighed sample amount of related substance 2 in reference solution 1, mg; • Ms—Weighed sample amount of the test sample in the test sample solution, mg; • MRS2—Weighed sample amount of related substance 2 in reference solution 2, mg; […]

[2] = Dynamic vapour sorption (DVS); type: physicochemical
Procedure: The DVS curves were acquired on DVS Intrinsic of SMS (Surface Measurement Systems). The relative humidity at 25° C. was corrected for the deliquescence points of LiCl, Mg(NO3)2 and KCl. • Test temperature: 25° C. • Sample amount: 10-20 mg • Shielding gas and flow: nitrogen, 200 mL/min • dm/dt: 0.002%/min; • Minimum dm/dt equilibration time: 10 min • Maximum equilibration time: 180 min • RH range: 0% RH-95% RH-0% RH • RH gradient: 10% 6. Polarizing Light Microscope (PLM)
The X-ray powder diffraction (XRPD) pattern of the solid is shown in FIG. 1, and the XRPD diffraction peak data thereof is shown in Table 1 below. […] (onset temperature). […] The PLM results are shown in FIG. 5, which indicate that the solid is irregular crystal particles. This crystal form is defined as crystal form A.

Appearance ([1]; 5 ± 3° C., Time 0): Yellow solid | Content ([1]; 5 ± 3° C., Time 0): 101.1% | Moisture ([1]; 5 ± 3° C., Time 0): 0.09% | Related substance 1 5-Nitro-8-hydroxyquinoline ([1]; 5 ± 3° C., Time 0): 0.04% | Related substance 1 Impurity 1 ([1]; 5 ± 3° C., Time 0): 0.27% | Related substance 1 Maximum unknown single impurity ([1]; 5 ± 3° C., Time 0): RRT 1.126: 0.07% | Related substance 1 Total impurities ([1]; 5 ± 3° C., Time 0): 0.53% | Related substance 2 ([1]; 5 ± 3° C., Time 0): 0.06% | Appearance ([1]; 5 ± 3° C., Time 6 M): Yellow solid | Content ([1]; 5 ± 3° C., Time 6 M): 99.6% | Moisture ([1]; 5 ± 3° C., Time 6 M): 0.1% | Related substance 1 Impurity 1 ([1]; 5 ± 3° C., Time 6 M): 0.3% | Related substance 1 Impurity 2 ([1]; 5 ± 3° C., Time 6 M): <0.01% | Related substance 1 Maximum unknown single impurity ([1]; 5 ± 3° C., Time 6 M): RRT 1.121: 0.07% | Related substance 1 Total impurities ([1]; 5 ± 3° C., Time 6 M): 0.5% | Related substance 2 ([1]; 5 ± 3° C., Time 6 M): 0.03% | Appearance ([1]; 25° C., 60% RH, Time 0): Yellow solid | Content ([1]; 25° C., 60% RH, Time 0): 101.1% | Moisture ([1]; 25° C., 60% RH, Time 0): 0.09% | Related substance 1 Impurity 1 ([1]; 25° C., 60% RH, Time 0): 0.27% | Related substance 1 Maximum unknown single impurity ([1]; 25° C., 60% RH, Time 0): RRT 1.126: 0.07% | Related substance 1 Total impurities ([1]; 25° C., 60% RH, Time 0): 0.53% | Related substance 2 ([1]; 25° C., 60% RH, Time 0): 0.06% | Appearance ([1]; 25° C., 60% RH, Time 3 M): Yellow solid | Content ([1]; 25° C., 60% RH, Time 3 M): 99.3% | Moisture ([1]; 25° C., 60% RH, Time 3 M): 0.07% | Related substance 1 Impurity 1 ([1]; 25° C., 60% RH, Time 3 M): 0.32% | Related substance 1 Impurity 2 ([1]; 25° C., 60% RH, Time 3 M): <0.01% | Related substance 1 Maximum unknown single impurity ([1]; 25° C., 60% RH, Time 3 M): RRT 1.123: 0.06% | Related substance 1 Total impurities ([1]; 25° C., 60% RH, Time 3 M): 0.51% | Related substance 2 ([1]; 25° C., 60% RH, Time 3 M): 0.04% | Appearance ([1]; 25° C., 60% RH, Time 6 M): Yellow solid | Content ([1]; 25° C., 60% RH, Time 6 M): 99.8% | Moisture ([1]; 25° C., 60% RH, Time 6 M): <0.1% | Related substance 1 Impurity 1 ([1]; 25° C., 60% RH, Time 6 M): 0.3% | Related substance 1 Impurity 2 ([1]; 25° C., 60% RH, Time 6 M): <0.01% | Related substance 1 Maximum unknown single impurity ([1]; 25° C., 60% RH, Time 6 M): RRT 1.121: 0.06% | Related substance 1 Total impurities ([1]; 25° C., 60% RH, Time 6 M): 0.5% | Related substance 2 ([1]; 25° C., 60% RH, Time 6 M): 0.04% | Appearance ([1]; 40° C., 75% RH, Time 0): Yellow solid | Content ([1]; 40° C., 75% RH, Time 0): 101.1% | Moisture ([1]; 40° C., 75% RH, Time 0): 0.09% | Related substance 1 5-Nitro-8-hydroxyquinoline ([1]; 40° C., 75% RH, Time 0): 0.04% | Related substance 1 Impurity 1 ([1]; 40° C., 75% RH, Time 0): 0.27% | Related substance 1 Maximum unknown single impurity ([1]; 40° C., 75% RH, Time 0): RRT 1.126: 0.07% | Related substance 1 Total impurities ([1]; 40° C., 75% RH, Time 0): 0.53% | Related substance 2 ([1]; 40° C., 75% RH, Time 0): 0.06% | Appearance ([1]; 40° C., 75% RH, Time 1 M): Yellow solid | Content ([1]; 40° C., 75% RH, Time 1 M): 101.1% | Moisture ([1]; 40° C., 75% RH, Time 1 M): 0.06% | Related substance 1 5-Nitro-8-hydroxyquinoline ([1]; 40° C., 75% RH, Time 1 M): 0.02% | Related substance 1 Impurity 1 ([1]; 40° C., 75% RH, Time 1 M): 0.27% | Related substance 1 Maximum unknown single impurity ([1]; 40° C., 75% RH, Time 1 M): RRT 1.125: 0.06% | Related substance 1 Total impurities ([1]; 40° C., 75% RH, Time 1 M): 0.52% | Related substance 2 ([1]; 40° C., 75% RH, Time 1 M): 0.05% | Appearance ([1]; 40° C., 75% RH, Time 2 M): Yellow solid | Content ([1]; 40° C., 75% RH, Time 2 M): 98.8% | Moisture ([1]; 40° C., 75% RH, Time 2 M): 0.09% | Related substance 1 Impurity 1 ([1]; 40° C., 75% RH, Time 2 M): 0.27% | Related substance 1 Impurity 2 ([1]; 40° C., 75% RH, Time 2 M): 0.01% | Related substance 1 Maximum unknown single impurity ([1]; 40° C., 75% RH, Time 2 M): RRT 1.132: 0.05% | Related substance 1 Total impurities ([1]; 40° C., 75% RH, Time 2 M): 0.44% | Related substance 2 ([1]; 40° C., 75% RH, Time 2 M): 0.06% | Appearance ([1]; 40° C., 75% RH, Time 3 M): Yellow solid | Content ([1]; 40° C., 75% RH, Time 3 M): 99.3% | Moisture ([1]; 40° C., 75% RH, Time 3 M): 0.06% | Related substance 1 Impurity 1 ([1]; 40° C., 75% RH, Time 3 M): 0.32% | Related substance 1 Maximum unknown single impurity ([1]; 40° C., 75% RH, Time 3 M): RRT 1.123: 0.05% | Related substance 1 Total impurities ([1]; 40° C., 75% RH, Time 3 M): 0.49% | Related substance 2 ([1]; 40° C., 75% RH, Time 3 M): 0.10% | Appearance ([1]; 40° C., 75% RH, Time 6 M): Yellow solid | Content ([1]; 40° C., 75% RH, Time 6 M): 99.7% | Moisture ([1]; 40° C., 75% RH, Time 6 M): <0.1% | Related substance 1 5-Nitro-8-hydroxyquinoline ([1]; 40° C., 75% RH, Time 6 M): <0.1% | Related substance 1 Impurity 1 ([1]; 40° C., 75% RH, Time 6 M): 0.3% | Related substance 1 Impurity 2 ([1]; 40° C., 75% RH, Time 6 M): <0.01% | Related substance 1 Maximum unknown single impurity ([1]; 40° C., 75% RH, Time 6 M): RRT 0.896: 0.04% | Related substance 1 Total impurities ([1]; 40° C., 75% RH, Time 6 M): 0.6% | Related substance 2 ([1]; 40° C., 75% RH, Time 6 M): 0.15% | crystal form before and after the DVS test (XRPD) [2]: unchanged | vapor sorption (DVS) ([2]; 25° C./80% RH): 0.17%
SMILES: CC(C)C(=O)N1CCC[C@H]1C(=O)OCOc1ccc([N+](=O)[O-])c2cccnc12 [crystal form A, ((5-nitroquinolin-8-yl)oxy)methyl-isobutyryl-L-prolinate]
